This note sets out measurements from US10844092B2, “Peptide for promoting regeneration of dentin or dental pulp tissue” (HysensBio Co., Ltd., priority 2016, dated 2020).

One test concerns DSP. Put plainly: Immunostaining of transplanted tissues for DSP. It is filed as in vivo, immunocompromised mice. The text has this: (§1) Briefly, the removed tissues were fixed in 4% paraformaldehyde, decalcified in 10% EDTA (pH 7.4), embedded in paraffin, and then immunostained with anti-DSP and anti-BSP antibodies at a dilution of 1:150 as primary antibodies, and reacted with biotin-labeled goat anti-rabbit IgG (Vector Labs) as secondary antibodies to determine DSP and BSP levels (FIG. 4). In this regard, the tissue transplanted with an implant including none of the peptides of the present invention was used as a control group.
(§2) In this regard, a tissue transplanted with an implant including none of the peptides of the present invention was used as a control group.

Test [1] deals with physiologic dentin (tertiary dentin). Description: Indirect pulp capping canine model, physiologic (tertiary) dentin formation. Particulars: 1.5 μg, 3 weeks. Type of test: in vivo, dogs. An excerpt: In detail, to establish dentin-damaged canine models by indirect pulp capping, a part of enamel in the cervical part was removed from the premolars of 12-month-old adult dogs by using a dental bur. The dentin was shallowly removed according to the exposure degree of the dentin to form a shallow cavity, thereby establishing a shallow cavity model. The dentin was deeply removed such that the dental pulp was seen through, but not exposed to the outside, thereby establishing a deep cavity model. The models were treated with the control group, the peptide of Group 11, or the peptide of Group 12. 3 weeks later, the adult dogs were euthanized, and teeth were extracted therefrom.
The extracted teeth were fixed in 4% paraformaldehyde for 2.4 hours, washed with PBS (pH 7.4) several times, and then decalcified with 10% formic acid. The decalcified teeth were embedded in paraffin to prepare tissue sections. The tissue sections were stained with hematoxylin/eosin (H&E), and dentin regeneration capabilities were evaluated by histological analysis.

The test system is the same in test [2]. Put plainly: Direct pulp capping canine model, physiologic (tertiary) dentin formation. It is filed as in vivo, dogs. Particulars: exposed pulp, peptide 1.5 μg, sealed with MTA, covered with GI cement, 3 weeks, FIG. 12. As to the method:
In detail, to establish dentin-damaged canine models by direct pulp capping, the enamel and dentin in the cervical part were removed from the premolars of 12-month-old adult dogs by using a dental bur so that the dental pulp was exposed to the outside. The models were treated with the control group, the peptide of Group 11, or the peptide of Group 12. 3 weeks later, the adult dogs were euthanized and teeth were extracted therefrom.
The extracted teeth were fixed in 4% paraformaldehyde for 24 hours, washed with PBS (pH 7.4) several times, and then decalcified with 10% formic acid. The decalcified teeth were embedded in paraffin to prepare tissue sections. The tissue sections were stained with hematoxylin/eosin (H&E), and dentin regeneration capabilities were evaluated by histological analysis.

For a further test, the system named is BSP. Put plainly: Immunostaining of transplanted tissues for BSP. Type of test: in vivo, immunocompromised mice.
From the text: as §1, §2

Test [3] has as its system root canal spaces of human teeth. Description: Implant transplanted into root canal spaces of human teeth (H-E, SEM). It is filed as in vivo. To be noted: 6 weeks. As for the experimental part:
Reportedly, the dentinal wall and the empty pulp cavity of a natural tooth provide the specific local environment for the regeneration of dentin/pulp-like tissues by dental pulp cells (Huang G T, et al. (2010) Tissue engineering. Part A 16(2):605-615). Therefore, formation of dentin/pulp-like tissues in root canal spaces was evaluated.
In detail, among the implants prepared in Example 3-1, a comparative implant or an implant including the peptide of Group 12 (SEQ ID NO: 96) at a concentration of 10 μg/ml was transplanted into the root canal spaces of human teeth for 6 weeks, and dentin dental pulp-like tissues formed in the respective implants were subjected to hematoxylin-eosin (H-E) staining according to the method of Example 3-1, and photographed by a scanning electron microscope according to the method of Example 3-7 (FIG. 9).

Setting [4] is: 6 weeks after transplantation, FIG. 4.
The mark [5] stands for this setting: 12 weeks after transplantation, FIG. 7.

For “KYKQKRRSYK (Synthetic construct of novel peptide) [SEQ ID NO: 96]”, the DSP expression level entry was “relatively high DSP expression level” in the test on DSP (setting [4]) and “relatively very high DSP expression levels” in the test on DSP (setting [5]). Moreover, the “dentin regeneration (histological analysis, H&E)” value in test [1] (deep cavity model, together with GI cement, FIG. 11) is “regeneration of physiologic tertiary dentin (TD) which was continuous with the odontoblast processes of the original dentin structure was observed”; in test [1] (shallow cavity model, FIG. 10) it was “regeneration of physiologic tertiary dentin (TD) which was continuous with the odontoblast processes of the original dentin structure was observed”; in test [2], “new physiologic dentin (TD) which was continuous with the odontoblast processes of the original dentin was formed”. The BSP expression level entry in the test with BSP (setting [4]) and in the test on BSP (setting [5]) was “low BSP expression level” throughout. The “pulp-like tissue formation inside root canals (H-E)” value in test [3] (10 μg/ml, FIG. 9) is on record as “vascularized pulp-like tissues were formed”. The “newly formed dentin in root canal (H-E)” value in test [3] (FIG. 9 C, D and D′) is listed as “newly formed dentin was observed in the existing dentinal wall”. In test [3] (FIG. 9 C, D and D′), the “odontoblast-like cells on existing dentinal wall (H-E)” value is given as “odontoblast-like cells exhibited a palisade arrangement on the existing dentinal wall”. In addition, the “odontoblast-like cells on existing dentinal wall (scanning microscopic images)” value in test [3] (FIG. 9 G and H) is “odontoblast-like cells exhibited a palisade arrangement on the existing dentinal wall”.
